# Reference: patent publication US5998437A, “Benzimidazole derivatives” (Otsuka Pharmaceutical Co., Ltd., priority 1995, dated 1999)
# Assays:
# [1] = test system: TPA induced inflammation; assay: Activity for inhibiting TPA induced inflammation (ear pinna); format: in vivo, ICR strain female mouse; details: 1% solution, 20 μl on ear pinna 30 minutes before TPA; 4 hours after TPA coating
# Protocol: (6) Determination of the Activity for Inhibiting TPA Induced Inflammation
# Test was conducted by the modified method of Carlson, et al. [Agents Actions, Vol. 26, (1989), page 319]. Thus, to the ear pinna of ICR strain female mouse, 20 μl of acetone solution of 12-O-tetradecanoylphorbol-13-acetate (TPA) in the concentration of 200 μg/ml was coated to induce inflammation. The thickness of ear pinna of 4 hours after the TPA coating was measured, and difference of the last value was defined as the ear pinna inflammation. Test compound was dissolved in acetone-methanol (4:1 by v/v) to make the concentration of 1%. 20 μl of test compound solution was coated on the ear pinna 30 minutes before the TPA coating. By using compound of Example 3 as test compound, the inflammation was inhibited at the rate of 66%.
# [2] = test system: rat A10 cells; assay: Activity for inhibiting proliferation of rat A10 cells ([3H]-thymidine uptake); format: cell-based; details: A10, 1% FBS stimulation, 24 hours, read-out: Activity for inhibiting proliferation of rat A10 cells [IC50 (μM)]
# Protocol: (2) Measurement of the Activity for Inhibiting Proliferation of Rat A10 Cells
# Test was conducted by the modified method of N. Morisaki [Atherosclerosis, Vol. 71, (1988), pp. 165-171]. The rat A10 cells (purchased from Dainippon Pharmaceutical Co., Ltd.) were inoculated on a 24 wells immunoplate at a density of 10,000 cells/well, and were cultured in 10% FBS (fetal bovine serum) for 2 days, and in order to introduce the cells into the resting stage, the cells were further cultured in a serum-free medium for 2 days. After that, 1% FBS was added thereto for stimulating the proliferation, of the cells and at the same time, a test compound and 0.5 μCi/well of [^3 H]-thymidine were added. As to the index of synthesized amount of DNA, the quantity of [^3 H]-thymidine being uptaken by the cells was measured at the time of 24 hours after the final cultivation was started.
# [3] = test system: rat mesangial cells; assay: Activity for inhibiting proliferation of rat mesangial cells (PDGF-BB, [3H]-thymidine uptake); format: cell-based; details: Mesangial cell, 5 ng/ml PDGF-BB, 0.5% FCS
# From the text: (7) Determination of the Activity for Inhibiting Proliferation of Rat Mesangial Cells
# In accordance with the method of F. Jaffer, et al. [Am. J. Pathol., Vol. 135, (1989), pages 261-269], the mesangial cells were collected. Under anesthetized condition, the kidney of a rat was aseptically enucleated and the medulla renis was cut out, then the cortex renis was pressed to a sieve (120 mesh) made of stainless steel. The fraction of cortex renis passed through the sieve was put on another sieve of 200 mesh and washed with PBS (phosphate-buffered saline), the fraction being remained on the sieve was confirmed as the glomerulus. This fraction was cultured in RPMI 1640 medium [containing 15% of fetal calf serum (FCS), and 5 μg/ml of insulin] for 4 weeks. This fraction was further subcultured twice, and the remaining cells were thought of as the mesangial cells for use of this experiment.
# Determination of the activity for inhibiting proliferation of rat mesangial cells was conducted in accordance with the method of M. B. Ganz, et al. [Am. […]
# Thus 2×10^4 /ml of mesangial cells were inoculated on a culture plate (48 wells, each well having the capacity of 0.5 ml), and cultured with RPMI medium (containing 15% FCS) for 3 days. […] The supernatant of the culture medium was taken up, and the amount of [^3 H]-thymidine up-taken into the cells was measured by use of scintillation counter.
# [4] = test system: T cells; assay: Activity for inhibiting proliferation of the T cells (mouse spleen cells, Concanavaline A); format: cell-based, Balb/c strain male mouse; details: T-cell, 2 days, then [3H] thymidine overnight
# Protocol: (4) Measurement of the Activity for Inhibiting Proliferation of the T Cells
# Test was conducted by the method as disclosed in "Current Protocol in Immunology" [Edited by Coligan, et al., (1991)] Chapter 3, page 12 (Published from Willy Interscience, Inc.). After sacrificed a Balb/c strain male mouse, the spleen was enucleated and a suspension of the spleen cells in RPMI-1640 culture medium was prepared. Said suspension was filtered through a nylon fiber mesh, and subjected to a centrifugal separation (1,200 rpm, for 5 minutes), there were added on pellet 5 ml of 0.15 M ammonium chloride, 10 mM potassium hydrogencarbonate, and 0.1 mM disodium salt of EDTA (pH 7.2) per one spleen so as to suspend the cells, and the suspension was incubated at 37° C. for 5 minutes. […] After counted the number of cells by using a hemacytometer, a suspension containing cell density of 10^6 /ml was prepared by diluting with RPMI-10 culture medium. […]
# 20 μCi/ml of [methyl-^3 H] thymidine was added in an amount of 10 μl/well, after further incubated overnight, by using a cell harvester the cells were recovered on the filter of the harvester. The filter was cut out from the cell harvester and put in a vial, then 5 ml of a scintillation cocktail (ACS-II) was added, and measured by using a liquid scintillation counter. […]
structure (smiles),measurement,setting,value
"O=C(Nc1ccc2c(ccn2CCCn2ccnc2)c1)c1nc2ccc(Cl)cc2n1Cc1ccccc1 [Example 3, 1-benzyl-6-chloro-2-{1-[3-(imidazol-1-yl)propyl]indol-5-ylamino-carbonyl}benzimidazole]",Inhibition rate of TPA induced inflammation,[1],66%
same,IC50,[2],0.5 µM
same,IC50,[3],0.79 µM
same,IC50,[4],2 µM
